Source: patent US8389524B2, “Tricyclic nitrogen containing compounds as antibacterial agents” (Glaxo Group Limited, priority 2007, dated 2013)
Counter-ions that a name gives are not always drawn.

system: Mycobacterium tuberculosis H37Rv; experiment: Mycobacterium tuberculosis H37Rv Inhibition Assay (resazurin, MIC); type: cell-based; conditions: ATCC 25618 / H37Rv, 144 h, H37Rv strain (ATCC25618), Middlebrook 7H9+ADC, six days at 37° C., resazurin fluorescence after 48 hours, read-out: MIC value

How did the MIC turn out when CC1(NCc2cc3c(cn2)OCS3)CCN(C[C@@H]2Cn3c(=O)ccc4ccc(=O)n2c43)CC1 [Example 24, (1R)-1-({4-Methyl-4-[([1,3]oxathiolo[5,4-c]pyridin-6-ylmethyl)amino]-1-piperidinyl}methyl)-1,2-dihydro-4H,9H-imidazo[1,2,3-ij]-1,8-naphthyridine-4,9-dione hydrochloride] was run?
The MIC was less than 2 µg/mL.

How did the MIC turn out when O=c1ccc2ccc(=O)n3c2n1C[C@H]3CN1CCC(NCc2ccc3c(c2)OCCO3)CC1 [Example 30, (1R)-1-({4-[(2,3-Dihydro-1,4-benzodioxin-6-ylmethyl)amino]-1-piperidinyl}methyl)-1,2-dihydro-4H,9H-imidazo[1,2,3-ij]-1,8-naphthyridine-4,9-dione hydrochloride] was run?
The MIC was less than 2 µg/mL.

For O=C1COc2cc(Cl)c(CNC3CCN(C[C@@H]4Cn5c(=O)ccc6ccc(=O)n4c65)CC3)nc2N1 [Example 32, (1R)-1-[(4-{[(7-Chloro-3-oxo-3,4-dihydro-2H-pyrido[3,2-b][1,4]oxazin-6-yl)methyl]amino}-1-piperidinyl)methyl]-1,2-dihydro-4H,9H-imidazo[1,2,3-ij]-1,8-naphthyridine-4,9-dione dihydrochloride], which MIC is on record?
Its MIC is less than 2 µg/mL.

For O=C1CSc2cc(Br)c(CNC3CCN(CC4Cn5c(=O)ccc6ccc(=O)n4c65)CC3)nc2N1 (centres unmarked) [Example 4, 1-({4-[(7-Bromo-3-oxo-3,4-Dihydro-2H-pyrido[3,2-b][1,4]thiazin-6-yl-methyl)amino-1-piperidinyl}methyl)1,2-dihydro-4H,9H-imidazo[1,2,3-ij]-1,8-naphthyridine-4,9-dione hydrochloride], which MIC is on record?
The MIC was less than 2 µg/mL.

How did the MIC turn out when O=c1ccc2ccc(=O)n3c2n1CC3CN1CCC(NCc2cc3c(cn2)OCCS3)CC1 (racemic) [Example 63, 1-[(4-{[(2,3-Dihydro[1,4]oxathiino[2,3-c]pyridin-7-yl)methyl]amino}-1-piperidinyl)methyl]-1,2-dihydro-4H,9H-imidazo[1,2,3-ij]-1,8-naphthyridine-4,9-dione hydrochloride (2:1 mixture of R:S)] was run?
Its MIC is less than 2 µg/mL.

With O=c1ccc2ncc(=O)n3c2n1C[C@H]3CN1CCC(NCc2cc3c(cn2)SCO3)CC1 [Example 28, (2R)-2-({4-[([1,3]Oxathiolo[4,5-c]pyridin-6-ylmethyl)amino]-1-piperidinyl}methyl)-1,2-dihydro-3H,8H-2a,5,8a-triazaacenaphthylene-3,8-dione hydrochloride] as the compound, how does the MIC read?
The MIC was less than 2 µg/mL.

For CC1(NCc2cc3c(cn2)OCCS3)CCN(C[C@@H]2Cn3c(=O)ccc4ccc(=O)n2c43)CC1 [Example 23, (1R)-1-({4-[(2,3-Dihydro[1,4]oxathiino[2,3-c]pyridin-7-ylmethyl)amino]-4-methyl-1-piperidinyl}methyl)-1,2-dihydro-4H,9H-imidazo[1,2,3-ij]-1,8-naphthyridine-4,9-dione hydrochloride], which MIC is on record?
Its MIC is less than 2 µg/mL.

How did the MIC turn out when O=c1ccc2ccc(=O)n3c2n1C[C@H]3CN1CCC(NCc2cc(F)c3c(c2)OCCO3)CC1 [Example 31, (1R)-1-[(4-{[(8-Fluoro-2,3-dihydro-1,4-benzodioxin-6-yl)methyl]amino}-1-piperidinyl)methyl]-1,2-dihydro-4H,9H-imidazo[1,2,3-ij]-1,8-naphthyridine-4,9-dione hydrochloride] was run?
The MIC was less than 2 µg/mL.

For O=C1CSc2ccc(CNC3CCN(C[C@@H]4Cn5c(=O)ccc6ncc(=O)n4c65)CC3)nc2N1 [Example 29, (2R)-2-[(4-{[(3-Oxo-3,4-dihydro-2H-pyrido[3,2-b][1,4]thiazin-6-yl)methyl]amino}-1-piperidinyl)methyl]-1,2-dihydro-3H,8H-2a,5,8a-triazaacenaphthylene-3,8-dione hydrochloride], which MIC is on record?
Its MIC is less than 2 µg/mL.

same assay, conditions: ATCC 25618 / H37Rv, 144 h, read-out: MIC value, H37Rv strain (ATCC25618), Middlebrook 7H9+ADC, six days at 37° C., resazurin fluorescence after 48 hours

For N#Cc1cc(CNC2CCN(C[C@@H]3Cn4c(=O)ccc5ncc(=O)n3c54)CC2)cc2c1OCCO2 [Example 42, 7-{[(1-{[(2R)-3,8-Dioxo-1,2-dihydro-3H,8H-2a,5,8a-triazaacenaphthylen-2-yl]methyl}-4-piperidinyl)amino]methyl}-2,3-dihydro-1,4-benzodioxin-5-carbonitrile hydrochloride], which MIC is on record?
Its MIC is less than 2 µg/mL.

How did the MIC turn out when O=c1cnc2ccc(=O)n3c2n1C[C@H]3CN1CCC(NCc2cc3c(cn2)OCCS3)CC1 [Example 14, (1R)-1-({4-[(2,3-Dihydro-[1,4]oxathiino[2,3-c]pyridin-7-ylmethyl)amino]-1-piperidinyl}methyl)-1,2-dihydro-3H,8H-2a,5,8a-triazaacenaphthylene-3,8-dione hydrochloride] was run?
The MIC was less than 2 µg/mL.

Which MIC does the source give for N#Cc1cc(CNC2CCN(C[C@@H]3Cn4c(=O)cnc5ccc(=O)n3c54)CC2)cc2c1OCCO2 [Example 56, 7-{[(1-{[(1R)-3,8-Dioxo-1,2-dihydro-3H,8H-2a,5,8a-triazaacenaphthylen-1-yl]methyl}-4-piperidinyl)amino]methyl}-2,3-dihydro-1,4-benzodioxin-5-carbonitrile hydrochloride] here?
The MIC was less than 2 µg/mL.

For O=c1cnc2ccc(=O)n3c2n1C[C@H]3CN1CCC(NCc2ccc3c(c2)OCCO3)CC1 [Example 44, (1R)-1-({4-[(2,3-Dihydro-1,4-benzodioxin-6-ylmethyl)amino]-1-piperidinyl}methyl)-1,2-dihydro-3H,8H-2a,5,8a-triazaacenaphthylene-3,8-dione hydrochloride], which MIC is on record?
The MIC was less than 2 µg/mL.

With O=c1ccc2ncc(=O)n3c2n1C[C@H]3CN1CCC(NCc2ccc3nsnc3c2)CC1 [Example 25, (2R)-2-({4-[(2,1,3-Benzothiadiazol-5-ylmethyl)amino]-1-piperidinyl}methyl)-1,2-dihydro-3H,8H-2a,5,8a-triazaacenaphthylene-3,8-dione hydrochloride] as the compound, how does the MIC read?
The MIC was no more than 1 µg/mL.

O=c1ccc2ncc(=O)n3c2n1C[C@H]3CN1CCC(NCc2cc3c(cn2)OCS3)CC1 [Example 16A, (2R)-2-({4-[([1,3]Oxathiolo[5,4-c]pyridin-6-ylmethyl)amino]-1-piperidinyl}methyl)-1,2-dihydro-3H,8H-2a,5,8a-triazaacenaphthylene-3,8-dione hydrochloride] was tested. Which MIC did it give?
Its MIC is less than 2 µg/mL.

With O=c1cnc2ccc(=O)n3c2n1C[C@H]3CN1CCC(NCc2cc3c(cn2)OCS3)CC1 [Example 13A, (1R)-1-({4-[([1,3]Oxathiolo[5,4-c]pyridin-6-ylmethyl)amino]-1-piperidinyl}methyl)-1,2-dihydro-3H,8H-2a,5,8a-triazaacenaphthylene-3,8-dione hydrochloride] as the compound, how does the MIC read?
The MIC was less than 2 µg/mL.

For O=c1ccc2ncc(=O)n3c2n1C[C@H]3CN1CCC(NCc2cc3c(cc2F)OCCO3)CC1 [Example 26, (2R)-2-[(4-{[(7-Fluoro-2,3-dihydro-1,4-benzodioxin-6-yl)methyl]amino}-1-piperidinyl)methyl]-1,2-dihydro-3H,8H-2a,5,8a-triazaacenaphthylene-3,8-dione hydrochloride], which MIC is on record?
Its MIC is no more than 1 µg/mL.

How did the MIC turn out when O=c1cnc2ccc(=O)n3c2n1C[C@H]3CN1CCC(NCc2cc3c(cn2)OCCC3)CC1 [Example 37, (1R)-1-({4-[(3,4-Dihydro-2H-pyrano[2,3-c]pyridin-6-ylmethyl)amino]-1-piperidinyl}methyl)-1,2-dihydro-3H,8H-2a,5,8a-triazaacenaphthylene-3,8-dione hydrochloride] was run?
Its MIC is less than 2 µg/mL.

With O=c1ccc2ccc(=O)n3c2n1C[C@H]3CN1CCC(NCc2cc3c(cn2)OCS3)CC1 [Example 5A, (1R)-1-({4-[([1,3]Oxathiolo[5,4-c]pyridin-6-ylmethyl)amino]-1-piperidinyl}methyl)-1,2-dihydro-4H,9H-imidazo[1,2,3-ij]-1,8-naphthyridine-4,9-dione hydrochloride] as the compound, how does the MIC read?
Its MIC is less than 2 µg/mL.

How did the MIC turn out when O=c1ccc2ccc(=O)n3c2n1C[C@H]3CN1CCC(NCc2cc3c(cn2)CCC3)CC1 [Example 8, (1R)-1-({4-[(6,7-Dihydro-5H-cyclopenta[c]pyridin-3-ylmethyl)amino]-1-piperidinyl}methyl)-1,2-dihydro-4H,9H-imidazo[1,2,3-ij]-1,8-naphthyridine-4,9-dione hydrochloride] was run?
Its MIC is less than 2 µg/mL.

How did the MIC turn out when O=c1ccc2ncc(=O)n3c2n1C[C@H]3CN1CCC(NCc2ccc3c(c2)OCCO3)CC1 [Example 40, (2R)-2-({4-[(2,3-Dihydro-1,4-benzodioxin-6-ylmethyl)amino]-1-piperidinyl}methyl)-1,2-dihydro-3H,8H-2a,5,8a-triazaacenaphthylene-3,8-dione hydrochloride] was run?
Its MIC is less than 2 µg/mL.

How did the MIC turn out when O=c1ccc2ccc(=O)n3c2n1C[C@H]3CN1CCC(NCc2cc3c(cn2)OCCS3)CC1 [Example 6A, (1R)-1-({4-[(2,3-Dihydro[1,4]oxathiino[2,3-c]pyridin-7-ylmethyl)amino]-1-piperidinyl}methyl)-1,2-dihydro-4H,9H-imidazo[1,2,3-ij]-1,8-naphthyridine-4,9-dione hydrochloride] was run?
The MIC was less than 2 µg/mL.

O=c1ccc2ncc(=O)n3c2n1CC3CN1CCC(NCc2cc3c(cn2)OCCS3)CC1 (racemic) [Example 20, 2-({4-[(2,3-Dihydro[1,4]oxathiino[2,3-c]pyridin-7-ylmethyl)amino]-1-piperidinyl}methyl)-1,2-dihydro-3H,8H-2a,5,8a-triazaacenaphthylene-3,8-dione hydrochloride] was tested. Which MIC did it give?
Its MIC is less than 2 µg/mL.

For O=c1ccc2ccc(=O)n3c2n1C[C@H]3CN1CCC(NCc2cc3c(cn2)CCCC3)CC1 [Example 7, (1R)-1-({4-[(5,6,7,8-Tetrahydro-3-isoquinolinylmethyl)amino]-1-piperidinyl}methyl)-1,2-dihydro-4H,9H-imidazo[1,2,3-ij]-1,8-naphthyridine-4,9-dione hydrochloride], which MIC is on record?
Its MIC is less than 2 µg/mL.

For O=c1ccc2ccc(=O)n3c2n1C[C@H]3CN1CCC(NCc2ccc3c(c2)OCCC3)CC1 [Example 50, (1R)-1-({4-[(3,4-Dihydro-2H-chromen-7-ylmethyl)amino]-1-piperidinyl}methyl)-1,2-dihydro-4H,9H-imidazo[1,2,3-ij]-1,8-naphthyridine-4,9-dione hydrochloride], which MIC is on record?
The MIC was less than 2 µg/mL.

How did the MIC turn out when O=C1CSc2cnc(CNC3CCN(C[C@@H]4Cn5c(=O)ccc6ccc(=O)n4c65)CC3)nc2N1 [Example 34, (1R)-1-[(4-{[(7-Oxo-6,7-dihydro-1H-pyrimido[5,4-b][1,4]thiazin-2-yl)methyl]amino}-1-piperidinyl)methyl]-1,2-dihydro-4H,9H-imidazo[1,2,3-ij]-1,8-naphthyridine-4,9-dione dihydrochloride] was run?
The MIC was less than 2 µg/mL.
